Data: US20220184071A1, “GEPOTIDACIN FOR USE IN THE TREATMENT OF BACTERIAL URINARY TRACT INFECTIONS” (GlaxoSmithKline Intellectual Property Development Limited, priority 2019, published 2022)
Values after ≈ are worked out from the molar mass of the structure shown. “Also recorded” adds a separate entry of the source. Where two headings read alike, the source gives them in different places.

Tests used:
E. coli = experiment: Phase IIa PK/PD and microbiological response by uropathogen; type: in vivo, human
Description: (§1) This phase IIa single center study evaluated the safety, tolerability, pharmacokinetics, and efficacy of oral gepotidacin 1500 mg BID for 5 days in female subjects with acute cystitis. Clean catch mid-stream urine specimens were obtained for quantitative culture by standard methods. Urine samples were taken from all participants pre-treatment (baseline) and at all post-baseline visits. All urine samples were sent to a central laboratory (PPD Global Clinical Laboratories, Highland Heights, Ky., USA) for Gram stain, quantitative culture, pathogen identification and susceptibility testing. See FIG. 1 for participant disposition and study outline.
(§2) Susceptibility testing by CLSI broth microdilution and gradient diffusion (fosfomycin only) was conducted (CLSI, 2015, Methods for dilution antimicrobial susceptibility tests for bacteria that grow aerobically; approved standard-tenth edition; and CLSI, 2018. Performance Standards for Antimicrobial Susceptibility Testing; Twenty-seventh Informational Supplement M100-S28). Inclusion in the microbiological intent-to-treat population (micro-ITT), required growth of a qualifying baseline uropathogen (≥10^5 CFU/mL). See FIG. 2 for the baseline algorithm.
(§3) For pharmacokinetic assessments, serial blood and urine samples for the assessment of gepotidacin PK concentrations were collected out to 12 hours post dose (T) following the morning dose on Days 1 and 4. CT (trough) concentrations were collected on Days 1-5. PK concentrations of gepotidacin in plasma and urine were measured using a validated LC-MS/MS bio-analytical assay.

K. pneumoniae = experiment: as above; type: in vivo, human; conditions: Participant 7
Description: as §1, §2, §3

S. saprophyticus = experiment: as above; type: in vivo, human; conditions: Participant 8
Description: as §1, §2, §3

C. koseri = experiment: as above; type: in vivo, human; conditions: Participant 1
Description: as §1, §2, §3

[1] = test system: Staphylococcus saprophyticus; experiment: MIC by CLSI broth microdilution in CAMHB and urine, Example 1 Method 3; type: cell-based; conditions: for Mean MIC: n = 6; for MIC: Staphylococcus saprophyticus
Description: Antimicrobial activity was determined by broth microdilution using the CLSI recommended procedure.
The compounds were tested in serial two-fold dilutions and the minimum inhibitory concentration (MIC) was determined as the lowest concentration of the compound that inhibited visible growth.
In particular, gepotidacin was tested against 6 strains of Staphylococcus saprophyticus from the collection of isolates at Laboratory Specialists, Inc., Westlake, Ohio.
Levofloxacin was included as the comparator in the study to determine the effect of urine on the in vitro activity of gepotidacin against Staphylococcus saprophyticus. MICs were determined by broth microdilution according CLSI methods.
The data shown in the table below are results from an in vitro study conducted with the same S. saprophyticus isolates described above, to determine the effect of urine on the in vitro activity of gepotidacin and levofloxacin against S. saprophyticus. Study strains were tested for MICs (minimum inhibitory concentrations) according to reference CLSI broth microdilution method using cation-adjusted Mueller Hinton Broth (CAMHB) and with the addition of 25%, 50% and 100% urine (not pH adjusted, pH 6.42) and 100% urine (pH adjusted, 7.31 and 8.07).

A. baumannii = experiment: MIC by CLSI agar dilution, Example 1 Method 2; type: cell-based, Acinetobacter baumannii; conditions: n = 60
Description: Antimicrobial activity was determined in a second study by […] using the CLSI recommended procedure in serial two-fold dilutions and the minimum inhibitory concentration (MIC) was determined as the lowest concentration of the compound that inhibited visible growth.
MICs were determined according to CLSI agar dilution guidelines.

Morganella morganii = experiment: MIC, Example 5 Method 1; type: cell-based; conditions: at least one isolate tested
Citrobacter amalonaticus = experiment: MIC by CLSI broth microdilution, isolates from UTI patients (Example 7); type: cell-based; conditions: n=1
Description: (§4) Gepotidacin was tested against the following organisms obtained from UTI patients, in serial two-fold dilutions. The minimum inhibitory concentration (MIC) was determined by broth microdilution according to CLSI methods.

Acidovorax temperans = experiment: as above; type: cell-based; conditions: n=1
Description: as §4

Providencia stuartii = experiment: as above; type: cell-based; conditions: n=1
Description: as §4

[2] = test system: All Qualifying Uropathogens; experiment: Phase IIa microbiological response (micro-ITT population); type: in vivo, human; conditions: for Microbiological Failure, n (%) (95% Confidence Interval): n 8
[3] = Saliva exposure, healthy volunteers; type: in vivo, human; conditions: 1500 mg oral single dose
Description: Antibiotic target site exposures play a key role as suboptimal levels may lead to therapeutic failure and resistance. Across multiple clinical studies, exposures to gepotidacin were assessed in plasma and other matrices, such as urine, saliva, epithelial lining fluid (ELF) and Alveolar Macrophages (AM).
Bronchoalveolar lavage samples were collected to determine gepotidacin exposures in ELF and AM following a single 1000 mg IV infusion over 2 hours to healthy subjects. Saliva exposure was assessed in healthy volunteers following 1500 mg oral single dose. Gepotidacin exposures in urine was assessed in women with acute uUTI following 1500 mg BID oral doses for 5 days.

O=c1ccc2ncc(=O)n3c2n1C[C@H]3CN1CCC(NCc2cc3c(cn2)OCCC3)CC1 [gepotidacin, (2R)-2-({4-[(3,4-dihydro-2H-pyrano[2,3-c]pyridin-6-ylmethyl)amino]-1-piperidinyl}methyl)-1,2-dihydro-3H,8H-2a,5,8a-triazaacenaphthylene-3,8-dione]
Microbiological success at Follow-up (E. coli; Participant 2): Success | Microbiological success at TOC (E. coli; Participant 2): Success | Microbiological success at Follow-up (E. coli; Participant 3): Success | Microbiological success at TOC (E. coli; Participant 3): Success | Microbiological success at Follow-up (E. coli; Participant 4): Success | Microbiological success at TOC (E. coli; Participant 4): Success | Microbiological success at TOC (E. coli; Participant 5, failure due to an out of stability urine specimen): Failure^b | Microbiological success at Follow-up (E. coli; Participant 5, failures at TOC considered failures at Follow-up): Failure^c | Microbiological success at Follow-up (E. coli; Participant 6, MDR): Success | Microbiological success at TOC (E. coli; Participant 6, MDR): Success | Microbiological success at Follow-up (K. pneumoniae): Success | Microbiological success at TOC (K. pneumoniae): microbiological success | Microbiological success at TOC (K. pneumoniae; listed as GEP): Success | Microbiological success at Follow-up (S. saprophyticus): Success | Microbiological success at TOC (S. saprophyticus): Success | Microbiological success at Follow-up (C. koseri): Failure | Microbiological success at TOC (C. koseri): Success | MIC range ([1]; 3 isolates of methicillin-resistant S. saprophyticus): 0.06 to 0.5 µg/mL | MIC range ([1]; 3 isolates of methicillin-susceptible S. saprophyticus): 0.03 to 0.5 µg/mL | Mean Dilution Difference ([1]; 25% Urine (pH 7.09) vs CAMHB): 0.00 | Mean difference ([1]; 25% Urine (pH 7.09) vs CAMHB): 0.00 | N(%) ± 1 dilution ([1]; 25% Urine (pH 7.09) vs CAMHB): 6 (100%) | N(%) ± 2 dilution ([1]; 25% Urine (pH 7.09) vs CAMHB): 6 (100%) | Mean MIC ([1]; 25% Urine (pH 7.09)): 0.11 µg/mL | Mean Dilution Difference ([1]; 50% Urine (6.99) vs CAMHB): 0.00 | Mean difference ([1]; 50% Urine (6.99) vs CAMHB): 0.00 | N(%) ± 1 dilution ([1]; 50% Urine (6.99) vs CAMHB): 6 (100%) | N(%) ± 2 dilution ([1]; 50% Urine (6.99) vs CAMHB): 6 (100%) | Mean MIC ([1]; 50% Urine (6.99)): 0.11 µg/mL | Mean Dilution Difference ([1]; 100% Urine (pH 6.42) vs CAMHB): 1.18 | Mean difference ([1]; 100% Urine (pH 6.42) vs CAMHB): 0.14 | N(%) ± 1 dilution ([1]; 100% Urine (pH 6.42) vs CAMHB): 4 (66.7%) | N(%) ± 2 dilution ([1]; 100% Urine (pH 6.42) vs CAMHB): 6 (100%) | Mean MIC ([1]; 100% Urine (pH 6.42)): 0.24 µg/mL | Mean Dilution Difference ([1]; 100% Urine (pH 7.31) vs CAMHB): 1.54 | Mean difference ([1]; 100% Urine (pH 7.31) vs CAMHB): 0.21 | N(%) ± 1 dilution ([1]; 100% Urine (pH 7.31) vs CAMHB): 3 (50%) | N(%) ± 2 dilution ([1]; 100% Urine (pH 7.31) vs CAMHB): 4 (66.7%) | Mean MIC ([1]; 100% Urine (pH 7.31)): 0.31 µg/mL | Mean Dilution Difference ([1]; 100% Urine (pH 8.07) vs CAMHB): 1.36 | Mean difference ([1]; 100% Urine (pH 8.07) vs CAMHB): 0.17 | N(%) ± 1 dilution ([1]; 100% Urine (pH 8.07) vs CAMHB): 3 (50%) | N(%) ± 2 dilution ([1]; 100% Urine (pH 8.07) vs CAMHB): 5 (83.3%) | Mean MIC ([1]; 100% Urine (pH 8.07)): 0.28 µg/mL | Mean MIC ([1]; CAMHB (ref. method, pH 7.2)): 0.11 µg/mL | MIC ([1]; read-out: MICs, heading: MICs, methicillin-susceptible and methicillin-resistant isolates tested (conclusion)): ≤ 0.5 µg/mL | MIC ([1]; at least one strain of methicillin-susceptible or methicillin-resistant S. saprophyticus, read-out: MIC): ≤ 0.5 µg/mL | MIC fold lower than levofloxacin ([1]; each of the methicillin-resistant S. saprophyticus): 4 fold | mean dilution differences (range) ([1]; gepotidacin in 100% urine (conclusion)): 1.18-1.54 | MIC fold lower than levofloxacin ([1]; methicillin-susceptible S. saprophyticus): 8-32 fold | MIC50 (A. baumannii; Acinetobacter baumannii): 32 µg/mL (≈ 71.3 µM) | MIC90 (A. baumannii; Acinetobacter baumannii): 64 µg/mL (≈ 143 µM) | Number of Isolates at Gepotidacin MIC 8 mg/L (A. baumannii): 7 | Number of Isolates at Gepotidacin MIC ≥16 mg/L (A. baumannii): 53 | MIC (Morganella morganii): 4 µg/mL (≈ 8.92 µM) | MIC (Citrobacter amalonaticus): 2 µg/mL (≈ 4.46 µM) | MIC (Acidovorax temperans): 1 µg/mL (≈ 2.23 µM) | MIC (Providencia stuartii): 32 µg/mL (≈ 71.3 µM) | Microbiological Failure, n (%) (95% Confidence Interval) ([2]; Follow-up Visit): 2 (25) (3-65) | Microbiological Failure, n (%) (95% Confidence Interval) ([2]; TOC Visit): 1 (13) (<1-53) | reduction in susceptibility to gepotidacin (≥4-fold increase in MIC) ([2]; baseline uropathogen vs same uropathogen at subsequent visits): no evidence of reduction in susceptibility; also recorded: No participants developed post-treatment uropathogens with reduced susceptibility | ratio of saliva AUC to unbound plasma AUC [3]: close to unity
